Legend:
human ACC2 = human ACC2 (Homo sapiens, UniProt O00763); test: Acetyl CoA carboxylase (ACC) activity inhibition test, human ACC2; type: biochemical; settings: 1 μmol/liter compound; read-out: Inhibition (%) by 1 μmol/liter Chemical, human ACC2
Experimental: (§1) A. Pharmacological Test Example (Acetyl CoA Carboxylase (ACC) Activity Inhibition Test)
(§2) A test compound is dissolved in dimethyl sulfoxide (DMSO) to a concentration of 10 mM and then diluted with DMSO to give a 100-fold concentrated solution of the compound compared with target assay concentration. The ACC enzyme activity inhibition test is carried out according to a modification of Thampy & Wakil's method (J. Biol. Chem., Vol. 260, pp. 6318-6323 (1985)). Concretely, 0.8 μl of the diluted test compound is added to each well of 96-well assay plate (Perkin Elmer Opti Plate), then 40 μl of a substrate solution (50 mM Hepes sodium (pH 7.5), 2 mM DTT, 10 mM ATP, 500 μM acetyl CoA, 0.17 mM NaH[^14C]O3 (58 mCi/mmol by Amersham), 8 mM NaHCO3) is added to each well, and 40 μL of an enzyme solution (1 to 2 nM human ACC1 or human ACC2, 50 mM Hepes sodium (pH 7.5), 2 mM DTT, 40 mM MgCl2, 40 mM tripotassium citrate 1 mg/ml fetal bovine serum albumin) is added thereto. Then, the upper side of the plate is sealed up, and the plate is incubated with gently stirring at 37° C. for 40 minutes. Next, 20 μl of 1 N HCl is added to each well to stop the enzyme reaction, and the assay plate is stirred overnight to remove the unreacted NaH[^14C]O3. Next, 100 μl of a scintillator (Perkin Elmer's Microscinti 40) is added to each well and the plate is stirred, then the radioactivity of the fixed [^14C] is counted using a microplate scintillation counter (Perkin Elmer's Topcount), the radioactivity of which represents the enzyme activity in each well. The human ACC1 and human ACC2 enzyme-inhibition activities of the test compounds are calculated, based on the radioactivity of the well added by DMSO without test compound as a control.

human ACC1 = human ACC1 (Homo sapiens, UniProt Q13085); test: Acetyl CoA carboxylase (ACC) activity inhibition test, human ACC1; type: biochemical; settings: 1 μmol/liter compound; read-out: Inhibition (%) by 1 μmol/liter Chemical, human ACC1
Experimental: as §1, §2

Sequence of human ACC2 (O00763 whole entry): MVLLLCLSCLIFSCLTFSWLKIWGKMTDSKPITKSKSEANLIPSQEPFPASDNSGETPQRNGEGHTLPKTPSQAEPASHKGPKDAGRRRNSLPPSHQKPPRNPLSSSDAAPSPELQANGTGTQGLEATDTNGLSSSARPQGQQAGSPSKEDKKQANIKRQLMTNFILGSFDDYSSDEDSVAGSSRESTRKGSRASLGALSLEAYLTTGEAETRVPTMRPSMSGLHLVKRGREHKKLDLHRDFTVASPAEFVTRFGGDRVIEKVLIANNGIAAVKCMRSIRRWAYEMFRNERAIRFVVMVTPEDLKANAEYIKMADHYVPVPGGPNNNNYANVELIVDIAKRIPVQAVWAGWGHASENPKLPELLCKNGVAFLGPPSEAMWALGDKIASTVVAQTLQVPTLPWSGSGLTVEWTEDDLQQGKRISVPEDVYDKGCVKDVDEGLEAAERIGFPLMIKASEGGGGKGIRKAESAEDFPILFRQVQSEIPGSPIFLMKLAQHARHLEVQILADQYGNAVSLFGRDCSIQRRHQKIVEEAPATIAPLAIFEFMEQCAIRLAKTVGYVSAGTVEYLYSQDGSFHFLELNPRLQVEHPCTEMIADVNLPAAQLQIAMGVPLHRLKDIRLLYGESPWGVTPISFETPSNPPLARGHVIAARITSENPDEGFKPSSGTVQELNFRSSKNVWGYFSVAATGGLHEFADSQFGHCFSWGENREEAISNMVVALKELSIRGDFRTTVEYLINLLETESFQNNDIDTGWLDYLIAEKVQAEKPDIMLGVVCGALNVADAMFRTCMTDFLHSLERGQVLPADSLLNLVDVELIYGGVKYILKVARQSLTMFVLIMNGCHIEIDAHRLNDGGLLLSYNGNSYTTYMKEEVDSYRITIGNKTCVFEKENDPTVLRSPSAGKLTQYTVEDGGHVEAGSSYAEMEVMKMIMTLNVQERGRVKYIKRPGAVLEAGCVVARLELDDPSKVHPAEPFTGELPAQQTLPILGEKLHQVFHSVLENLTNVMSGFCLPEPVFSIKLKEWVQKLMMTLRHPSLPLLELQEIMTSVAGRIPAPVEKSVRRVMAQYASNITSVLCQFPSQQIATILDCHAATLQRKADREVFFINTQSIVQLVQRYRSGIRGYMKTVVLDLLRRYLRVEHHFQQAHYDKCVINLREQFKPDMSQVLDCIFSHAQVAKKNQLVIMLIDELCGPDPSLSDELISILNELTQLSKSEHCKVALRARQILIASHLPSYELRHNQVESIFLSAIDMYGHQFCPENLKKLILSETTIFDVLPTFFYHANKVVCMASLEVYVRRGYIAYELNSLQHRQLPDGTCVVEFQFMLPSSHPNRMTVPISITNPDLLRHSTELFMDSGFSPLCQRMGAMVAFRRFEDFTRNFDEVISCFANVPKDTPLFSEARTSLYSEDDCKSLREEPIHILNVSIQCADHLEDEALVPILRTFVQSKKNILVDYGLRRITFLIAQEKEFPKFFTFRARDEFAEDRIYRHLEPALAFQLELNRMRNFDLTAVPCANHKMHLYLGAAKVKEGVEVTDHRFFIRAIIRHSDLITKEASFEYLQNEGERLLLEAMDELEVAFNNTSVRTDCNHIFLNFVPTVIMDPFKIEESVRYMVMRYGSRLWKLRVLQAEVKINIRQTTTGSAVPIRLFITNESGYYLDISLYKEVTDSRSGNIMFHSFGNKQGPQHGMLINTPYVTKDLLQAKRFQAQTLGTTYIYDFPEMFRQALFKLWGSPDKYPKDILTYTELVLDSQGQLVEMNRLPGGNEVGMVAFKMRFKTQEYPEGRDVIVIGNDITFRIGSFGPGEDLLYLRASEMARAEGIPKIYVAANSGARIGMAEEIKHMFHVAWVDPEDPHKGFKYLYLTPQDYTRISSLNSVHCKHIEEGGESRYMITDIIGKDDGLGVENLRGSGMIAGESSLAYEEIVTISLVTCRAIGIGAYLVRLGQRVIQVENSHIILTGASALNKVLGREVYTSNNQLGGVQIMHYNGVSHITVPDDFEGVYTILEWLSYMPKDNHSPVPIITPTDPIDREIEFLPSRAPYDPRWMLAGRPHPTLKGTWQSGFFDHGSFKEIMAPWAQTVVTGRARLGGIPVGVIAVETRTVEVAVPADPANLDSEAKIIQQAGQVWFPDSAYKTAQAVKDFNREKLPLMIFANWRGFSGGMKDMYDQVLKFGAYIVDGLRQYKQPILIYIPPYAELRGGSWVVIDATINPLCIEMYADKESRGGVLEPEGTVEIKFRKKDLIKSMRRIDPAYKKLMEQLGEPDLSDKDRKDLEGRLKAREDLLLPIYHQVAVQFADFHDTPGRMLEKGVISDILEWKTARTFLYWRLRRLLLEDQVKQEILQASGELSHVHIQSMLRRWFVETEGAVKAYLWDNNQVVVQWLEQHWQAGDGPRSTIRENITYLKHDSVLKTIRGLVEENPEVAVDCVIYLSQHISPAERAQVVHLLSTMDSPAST

| inhibition at 1 µM (human ACC2) | inhibition at 1 µM (human ACC1) | Structure (SMILES) |
| --- | --- | --- |
| 100% | 99% | CCOc1cc(C(=O)N2CCC3(CC2)CC(=O)c2cc(-c4cnn(C)c4)ccc2O3)cc(OCC)c1-c1ccc(C(=O)O)cc1 [Example 18, Sodium 2′,6′-diethoxy-4′-{[6-(1-methyl-1H-pyrazol-4-yl)-4-oxospiro[chroman-2,4′piperidin]-1′-yl]carbonyl}biphenyl-4-carboxylate] |
| 100% | 100% | CCOc1cc(C(=O)N2CCC3(CC2)CC(=O)c2cc(-c4cnn(C)c4)ccc2O3)cc(OCC)c1-c1cncc(C(=O)O)c1 [Example 21, 5-(2,6-Diethoxy-4-{[6-(1-methyl-1H-pyrazol-4-yl)-4-oxospiro[chroman-2,4′-piperidin]-1′-yl]carbonyl}phenyl)nicotinic acid] |
| 99% | 99% | Cc1nn(-c2ccc(C(=O)O)cc2)c2ccc(C(=O)N3CCC4(CC3)CC(=O)c3cc(-c5cnn(C)c5)ccc3O4)cc12 [Example 13, 4-(3-Methyl-5-{[6-(1-methyl-1H-pyrazol-4-yl)-4-oxospiro[chroman-2,4′-piperidin]-1′-yl]carbonyl}-1H-indazol-1-yl)benzoic acid] |
| 99% | 98% | CCOc1cc(C(=O)N2CCC3(CC2)CC(=O)c2cc(-c4ccc(C(N)=O)cn4)ccc2O3)cc(OCC)c1-c1ccc(C(=O)O)cc1 [Example 5] |
| 99% | 100% | CCOc1cc(C(=O)N2CCC3(CC2)CC(=O)c2cc(-c4cnn(C)c4)ccc2O3)cc(OCC)c1-c1cccc(C(=O)O)c1 [Example 20, Sodium 2′,6′-diethoxy-4′-{[6-(1-methyl-1H-pyrazol-4-yl)-4-oxospiro[chroman-2,4′-piperidin]-1′-yl]carbonyl}biphenyl-3-carboxylate] |
| 99% | 100% | CCOc1cc(C(=O)N2CCC3(CC2)CC(=O)c2cc(-c4ccc(C(N)=O)cc4)ccc2O3)cc(OCC)c1-c1ccc(C(=O)O)cc1 [Example 3, 4′-({6-(4-Carbamoylphenyl)-4-oxospiro[chroman-2,4′-piperidin]-1′-yl}carbonyl)-2′,6′-diethoxybiphenyl-4-carboxylic acid] |
